Assay results taken from patent publication US20200140483A1, “USE OF Y PEPTIDE IN PREPARATION OF DRUG OR HEALTHCARE PRODUCT FOR LOWERING BLOOD PRESSURE” (priority 2017, published 2020).
Residues, ends and D or L forms follow the SMILES beside them.

System: SHR rats
Type: in vivo, rat
Protocol: Each group was intragastrically administrated a solution of a corresponding tested substance or ultrapure water, in a volume of 10 mL/kg body weight, once per day for 30 consecutive days. The blood pressure and heart rates of the animals were measured during the administration of the tested substance. The blood pressure was measured with an LE5002 noninvasive blood pressure meter.

N[C@@H](Cc1ccc(O)cc1)C(=O)N[C@@H](Cc1ccc(O)cc1)C(=O)O [YY-peptide] (H-Tyr-Tyr-OH; N-terminus and C-terminus assumed)
blood pressure (SHR rats, 10 mg/kg intragastric once per day, 7th day, model control 161±6): 157±7
effect in lowering blood pressure (SHR rats, 10 mg/kg, 7th day): significant effect in lowering blood pressure
effect on body weight (rat, in vivo, 10 mg/kg): no obvious effect
effect on heart rates (rat, in vivo, 10 mg/kg): no obvious effect
